Eight molecules from PubChem BioAssay (NCI) can be followed below.

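Interpolation was linear, between the two tested concentrations surrounding the appropriate level; five concentrations were tested over 48 hours in 96-well plates. Abbreviation: GI50, concentration required for 50% inhibition of growth. TGI is the concentration that stops growth completely.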

Test systems include SK-MEL-2 melanoma; HCT-116 colon; NCI/ADR-RES ovarian; K-562 leukemia; M14 melanoma; ACHN renal; MDA-MB-435; HS 578T breast; UACC-62 melanoma; T-47D breast.
What all share (experiment): NCI tumour cell line growth inhibition, 48 h

As to `COc1cc(-c2nn(-c3cccc(NC(=O)Nc4cc(C(F)(F)F)cc(C(F)(F)F)c4)c3)cc2-c2ccncc2)ccc1Cl`, the GI50 was 1.01 µM in the assay with SK-MEL-2 melanoma; 0.442 µM in the assay on HCT-116 colon; 1.02 µM with NCI/ADR-RES ovarian; 0.279 µM in the assay with K-562 leukemia; 0.826 µM in the assay on M14 melanoma; 0.309 µM with ACHN renal. The GI50 with MDA-MB-435 was 0.772 µM; in the assay with HS 578T breast it was 1.16 µM; in the assay with UACC-62 melanoma, 0.496 µM; in the assay on T-47D breast, 1.03 µM. For the same molecule, the TGI was found to be 2.04 µM in the assay on SK-MEL-2 melanoma; 2.44 µM in the assay with HCT-116 colon; 7.25 µM in the assay on NCI/ADR-RES ovarian; 3.03 µM in the assay with K-562 leukemia; 4.68 µM with M14 melanoma; 16.9 µM in the assay with ACHN renal. In addition, the TGI came out at 1.85 µM with MDA-MB-435, 8.81 µM in the assay with HS 578T breast, 1.5 µM in the assay on UACC-62 melanoma and 26.7 µM in the assay on T-47D breast.
As to `CC(C)[C@H](CO)Nc1nc(Nc2ccc(C(=O)NCCNS(=O)(=O)c3cccc4c(N(C)C)cccc34)c(Cl)c2)c2ncn(C(C)C)c2n1`, the GI50 was 2.67 µM in the assay with SK-MEL-2 melanoma; 2.57 µM in the assay on HCT-116 colon; greater than 100 µM with NCI/ADR-RES ovarian; 3.92 µM in the assay with K-562 leukemia; 3.24 µM in the assay on M14 melanoma; 5.74 µM with ACHN renal. The GI50 in the assay with MDA-MB-435 is 2.43 µM; in the assay on HS 578T breast it was 2.08 µM; in the assay on UACC-62 melanoma, 3.4 µM; in the assay with T-47D breast, 2.93 µM. The TGI with SK-MEL-2 melanoma is 7.73 µM; in the assay on HCT-116 colon, greater than 100 µM; in the assay on NCI/ADR-RES ovarian it was greater than 100 µM; in the assay on K-562 leukemia it was greater than 100 µM; in the assay on M14 melanoma, greater than 100 µM; in the assay with ACHN renal, greater than 100 µM. The TGI in the assay on MDA-MB-435 is greater than 44.2 µM; in the assay on HS 578T breast, greater than 100 µM; in the assay with UACC-62 melanoma, greater than 100 µM; with T-47D breast, greater than 82.5 µM.
Turning to `CC(C)(O)CS(=O)(=O)Nc1ccc2c(c1)CCN(C(=O)COc1cccnc1)C2`, the GI50 with SK-MEL-2 melanoma is greater than 100 µM; with HCT-116 colon, 0.0311 µM; in the assay with NCI/ADR-RES ovarian, 1.47 µM; in the assay with K-562 leukemia it was 0.0652 µM; in the assay on M14 melanoma, 0.153 µM; with ACHN renal, greater than 100 µM. The GI50 in the assay on MDA-MB-435 was 0.518 µM; in the assay with HS 578T breast, greater than 100 µM; in the assay on UACC-62 melanoma, greater than 100 µM; with T-47D breast, greater than 35.2 µM. The TGI in the assay with SK-MEL-2 melanoma, with HCT-116 colon, in the assay on NCI/ADR-RES ovarian, in the assay on K-562 leukemia, with M14 melanoma and with ACHN renal was greater than 100 µM in each case. The TGI with MDA-MB-435, in the assay with HS 578T breast, in the assay on UACC-62 melanoma and with T-47D breast was greater than 100 µM in each case.
As for `COc1c(OC)c(OC)c2c(c1OC)c(=O)c1ccccc1n2C`, the TGI in the assay on SK-MEL-2 melanoma, in the assay with HCT-116 colon, with NCI/ADR-RES ovarian, in the assay with K-562 leukemia, in the assay on M14 melanoma and with ACHN renal was greater than 100 µM each time. For the same molecule, the TGI in the assay on MDA-MB-435, with HS 578T breast, with UACC-62 melanoma and in the assay on T-47D breast was greater than 100 µM in each case.
For the molecule `CCCc1cc2c(=O)c(C(=O)OC)c[nH]c2cc1N(CC)CC`, the GI50 was 36.1 µM with SK-MEL-2 melanoma; 21.5 µM in the assay with HCT-116 colon; 24.2 µM with NCI/ADR-RES ovarian; 80.5 µM in the assay on K-562 leukemia; 57 µM in the assay on M14 melanoma; 17.6 µM in the assay with ACHN renal. Besides, the GI50 was 47.5 µM in the assay on MDA-MB-435, 19.6 µM in the assay with HS 578T breast, greater than 100 µM with UACC-62 melanoma and 53 µM in the assay with T-47D breast. Further, the TGI is 97.8 µM in the assay on SK-MEL-2 melanoma; 59.1 µM with HCT-116 colon; 72.8 µM in the assay on NCI/ADR-RES ovarian; greater than 100 µM in the assay on K-562 leukemia; greater than 100 µM in the assay with M14 melanoma; 60.9 µM in the assay on ACHN renal. Further, the TGI in the assay with MDA-MB-435 was greater than 100 µM; with HS 578T breast, 48.1 µM; in the assay on UACC-62 melanoma, greater than 100 µM; in the assay with T-47D breast, greater than 100 µM.
Turning to `O=C(Nc1cc(Cl)cc(Cl)c1)c1ccc(NC2=C(Cl)C(=O)N(Cc3ccc(Cl)cc3Cl)C2=O)cc1`, the GI50 with SK-MEL-2 melanoma was 23.5 µM; in the assay with HCT-116 colon, 4.06 µM; in the assay with NCI/ADR-RES ovarian, 29.7 µM; with K-562 leukemia, 1.33 µM; in the assay with M14 melanoma, 10.1 µM; in the assay with ACHN renal, 19 µM. For the same molecule, the GI50 was 25 µM in the assay on MDA-MB-435, 8.12 µM with HS 578T breast, 18.3 µM in the assay on UACC-62 melanoma and 3.12 µM in the assay on T-47D breast. Also, the TGI with SK-MEL-2 melanoma is 43.9 µM; in the assay on HCT-116 colon, 16.9 µM; in the assay on NCI/ADR-RES ovarian, greater than 100 µM; in the assay with K-562 leukemia, 10.7 µM; with M14 melanoma it was 61.7 µM; in the assay with ACHN renal it was 48.9 µM. Further, the TGI in the assay on MDA-MB-435 was 57.9 µM; in the assay with HS 578T breast it was 54.7 µM; with UACC-62 melanoma it was 38.2 µM; with T-47D breast it was 73.9 µM.
In the case of `N[C@@H]1CCCC[C@H]1N.O=C([O-])C(=O)[O-].[Pt+4]`, the GI50 is 5.15 µM in the assay on SK-MEL-2 melanoma; 0.378 µM with HCT-116 colon; 0.0318 µM in the assay on NCI/ADR-RES ovarian; 0.854 µM in the assay on K-562 leukemia; 7.22 µM in the assay on M14 melanoma; 2.15 µM in the assay on ACHN renal. Moreover, the GI50 with MDA-MB-435 is 0.577 µM; in the assay with HS 578T breast, greater than 100 µM; with UACC-62 melanoma, 2.2 µM; with T-47D breast it was 2.21 µM. The TGI in the assay on SK-MEL-2 melanoma is 52.9 µM; in the assay on HCT-116 colon, greater than 100 µM; in the assay on NCI/ADR-RES ovarian, 30.4 µM; in the assay on K-562 leukemia it was greater than 95.3 µM; in the assay on M14 melanoma, 45.1 µM; with ACHN renal, 45.3 µM. Moreover, the TGI with MDA-MB-435 is 18.6 µM; in the assay on HS 578T breast, greater than 100 µM; in the assay on UACC-62 melanoma it was 23.5 µM; in the assay on T-47D breast, greater than 100 µM.
On to `O=c1c2ccccc2n(C[C@H]2CO2)c2ccccc12`, for which the GI50 in the assay on SK-MEL-2 melanoma was 1.96 µM; in the assay with HCT-116 colon, 1.12 µM; in the assay on NCI/ADR-RES ovarian it was 1.7 µM; with K-562 leukemia, 2.2 µM; with M14 melanoma it was 1.67 µM; in the assay with ACHN renal it was 0.886 µM. For the same molecule, the GI50 is 1.61 µM in the assay on MDA-MB-435, 2.05 µM in the assay on HS 578T breast, 1.59 µM in the assay on UACC-62 melanoma and 2.53 µM in the assay with T-47D breast. The TGI with SK-MEL-2 melanoma was 3.83 µM; with HCT-116 colon it was 8.78 µM; with NCI/ADR-RES ovarian it was 6.25 µM; in the assay on K-562 leukemia, greater than 100 µM; with M14 melanoma it was 3.9 µM; in the assay with ACHN renal it was 3.9 µM. For the same molecule, the TGI turned out to be 3.24 µM in the assay on MDA-MB-435, 5.89 µM with HS 578T breast, 3.11 µM in the assay with UACC-62 melanoma and 8.38 µM in the assay on T-47D breast.
